Here are results for ten molecules from publication PMC9673926, “Nucleotide binding as an allosteric regulatory mechanism for Akkermansia muciniphila β-N-acetylhexosaminidase Am2136” (Gut Microbes, 2022).

One series addresses T1, Am2136 WT dialyzed (Akkermansia muciniphila, UniProt B2UPR7).
T1 construct: The coding region (residue Q20-L756) of Am2136 without signal peptide was based on UniProt; 6XHis (N); made in house; host or cells: E. coli BL21 (DE3)
Kind of series: Metal ion effect on enzyme hydrolysis activity. The format is biochemical. The conditions noted are these: for Vmax / kcat/Km: WT dialyzed + 2 mM metal ion, substrate pNP-β-GlcNAc; for effect of metal ion on Am2136 catalytic activity: 2 mM metal ion. The method, then: The purified protein was added with the final concentration of 5 mM EDTA and incubated on ice for 20 min. Then the protein was dialyzed with the buffer solution (2 mM EDTA, 25 mM Tris, 150 mM NaCl, 5% Glycerol, pH 8.0) at 4°C for 4 h at a volume ratio of 1:350. After that, the protein was dialyzed with the EDTA-free buffer for 4 h and repeated twice.
The dialyzed protein was incubated with other metal ions on ice for 5 min. The 50 μL reaction mixture contains 2 μM protein, 0.125–4 mM p-nitrophenyl (pNP)-β-GlcNAc, 2 mM metal ions (MgCl2, CaCl2, CuCl2, ZnCl2, CoCl2), 25 mM Tris pH 8.0 and 150 mM NaCl.

The next series addresses T2, Am2136 WT (Akkermansia muciniphila, UniProt B2UPR7).
T2 construct: The coding region (residue Q20-L756) of Am2136 without signal peptide was based on UniProt; 6XHis (N); made in house; host or cells: E. coli BL21 (DE3)
Kind of series: Nucleotide binding affinity by intrinsic fluorescence. The conditions noted are these: WT dialyzed. The method, then: The nucleotide binding ability was determined on Fluorescence Spectrometer Duetta (HORIBA) by measuring the change of peak intensity. The fluorescence was excited at 286 nm and emitted at 336 nm. And the measurement was processed under 400 V voltage with 2.5 nm excitation slit and 5 nm emission slit. […] The sample was incubated at 4°C for 5 min before testing.

The target in the next series is T3, Am2136 (Akkermansia muciniphila, UniProt B2UPR7).
T3 construct: The coding region (residue Q20-L756) of Am2136 without signal peptide was based on UniProt; 6XHis (N); made in house; host or cells: E. coli BL21 (DE3)
Kind of series: Oligosaccharide hydrolysis, released GlcNAc by HPLC-QqQ-MS. The format is biochemical. Conditions: 1.2 mM substrate, 4 μM Am2136, 37°C, 240 min. The protocol: The 30 μL reaction mixture contains 1.2 mM oligosaccharides (Sigma), 4 μM proteins, 150 mM NH4Ac pH 8.0. The qualitative and quantitative analyses were performed by high-performance liquid chromatography-tandem triple quadrupole mass spectrometry (HPLC-QqQ-MS) (Agilent 1260 HPLC system and 6460 QqQ system, Agilent Technologies, USA). The separation was performed on a Chromplus C18 column (4.6 × 250 mm, 5 μm) at 25°C. The samples were isocratic eluted with 0.1% formic acid in water and acetonitrile (80:20, v/v) at a flow rate of 0.5 mL/min with an injection volume of 5 μL. The mass spectrometer was operated in the electron spray ionization mode with drying gas temperature of 300°C, N2 gas flow at 11 L/min, nebulizer pressure of 15 psi, and capillary voltage of 4000 V.
Qualitative analysis was carried out by MS2 full-scan mode, while quantitative analysis was performed by multiple reaction monitoring (MRM) in positive ionization mode. Amygdalin (IS) was used as internal standard, and the sample was prepared by adding 20 μL internal standard (116.96 μM) and 170 μL water to 10 μL reaction mixture. The ion transitions were chosen as m/z 222.0→203.9 for GlcNAc and m/z 458.1→296.0 for IS. The fragmentor voltage values of GlcNAc and IS were set to 70 and 130 V, respectively. The collision energies of GlcNAc and IS were set to 1 and 10 eV, respectively. The signal acquisition and peak integration were performed using the MassHunter Qualitative Analysis Software (Agilent, USA). The concentration of GlcNAc in each sample was determined by using the established calibration curve (y = 0.768x + 2.4873) made from the standard compound.

Substrate in series [1]: CC(=O)N[C@H]1[C@H](Oc2ccc([N+](=O)[O-])cc2)O[C@H](CO)[C@@H](O)[C@@H]1O
Kind of series: purified protein, by the assay type. The conditions noted are these: pH 8.0; 37.0 °C.

T1 sequence (B2UPR7 20-756): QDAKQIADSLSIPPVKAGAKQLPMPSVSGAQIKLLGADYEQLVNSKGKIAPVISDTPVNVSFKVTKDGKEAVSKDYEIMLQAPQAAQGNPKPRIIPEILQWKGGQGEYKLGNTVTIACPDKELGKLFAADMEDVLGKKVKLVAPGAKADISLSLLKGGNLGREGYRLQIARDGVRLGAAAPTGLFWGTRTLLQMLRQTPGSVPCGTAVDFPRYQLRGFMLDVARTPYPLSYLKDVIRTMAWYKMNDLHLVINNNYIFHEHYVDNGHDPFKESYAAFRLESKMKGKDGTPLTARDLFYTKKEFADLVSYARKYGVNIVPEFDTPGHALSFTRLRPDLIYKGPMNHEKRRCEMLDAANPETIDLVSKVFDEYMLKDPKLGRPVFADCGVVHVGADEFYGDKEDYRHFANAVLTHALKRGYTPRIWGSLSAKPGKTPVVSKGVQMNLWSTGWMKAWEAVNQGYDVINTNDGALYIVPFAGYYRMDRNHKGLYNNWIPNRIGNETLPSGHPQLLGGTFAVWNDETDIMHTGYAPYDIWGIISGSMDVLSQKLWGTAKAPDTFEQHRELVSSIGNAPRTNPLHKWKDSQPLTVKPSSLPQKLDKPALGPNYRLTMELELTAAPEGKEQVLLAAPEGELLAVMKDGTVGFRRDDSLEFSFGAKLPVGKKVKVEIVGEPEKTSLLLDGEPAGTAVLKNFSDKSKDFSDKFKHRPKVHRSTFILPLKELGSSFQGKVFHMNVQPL
T3 sequence (B2UPR7 20-756): as above
T2 sequence (B2UPR7 20-756): as above

Broadly, the Vmax is the top rate of the reaction or transport when substrate is in excess. What is called kcat/Km is the turnover number divided by the Michaelis constant. In the case of `[Ca+2].[Cl-].[Cl-]` [Ca^2+, CaCl2], at Am2136 WT dialyzed, the maximal velocity (Vmax) stood at 447 ± 14 µmol/min and the catalytic efficiency (kcat/Km) stood at 128000 ± 2000 M⁻¹ s⁻¹. In addition, the “effect of ion on GDP binding to Am2136” value at Am2136 WT is “did not exhibit obvious behavioral effect on GDP binding”.

Regarding `[Cl-].[Cl-].[Co+2]` [Co^2+, CoCl2], at Am2136 WT dialyzed, the “effect of metal ion on Am2136 catalytic activity” value (from here on “effect of metal ion”) is recorded as “significant inhibitory effects”.

As to `[Cl][Cu][Cl]` [Cu^2+, CuCl2], the “effect of metal ion” value on Am2136 WT dialyzed is reported as “significant inhibitory effects”.

As to `CC(=O)N[C@H]1[C@H](O[C@@H]2C(O)O[C@H](CO)[C@@H](O)[C@@H]2O)O[C@H](CO)[C@@H](O)[C@@H]1O` (stereo partly drawn) [GlcNAc-(β1,2)Man], the results for the GlcNAc released at Am2136 (with 1 mM GDP) and at Am2136 (without GDP) were 851.33 µM and 671 µM, respectively.

As for `CC(=O)N[C@H]1[C@H](OC[C@H]2O[C@@H](O[C@H]3[C@H](O)[C@@H](O)C(O)O[C@@H]3CO)[C@H](O)[C@@H](O)[C@H]2O)O[C@H](CO)[C@@H](O)[C@@H]1O` (stereo partly drawn) [GlcNAc-(β1,6)Gal-(β1,4)Glc], the GlcNAc released at Am2136 (with 1 mM GDP) came to 712.55 µM; on Am2136 (without GDP), 549 µM.

`CC(=O)N[C@H]1[C@@H](Oc2ccc([N+](=O)[O-])cc2)O[C@H](CO[C@@H]2O[C@H](CO)[C@@H](O)[C@H](O)[C@H]2NC(C)=O)[C@H](O)[C@@H]1O` [GlcNAc-(β1,6)GalNAc-α-pNP]: the GlcNAc released on Am2136 (with 1 mM GDP) came out at 451.25 µM; on Am2136 (without GDP), 308 µM.

Regarding `COC1O[C@H](CO)[C@H](O)[C@H](O[C@@H]2O[C@H](CO)[C@@H](O)[C@H](O)[C@H]2NC(C)=O)[C@H]1O` (stereo partly drawn) [Methyl GlcNAc-(β1,3)Gal], the GlcNAc released is 610.53 µM on Am2136 (with 1 mM GDP) and 448 µM at Am2136 (without GDP).

Take `[Cl-].[Cl-].[Mg+2]` [Mg^2+, MgCl2]: on Am2136 WT dialyzed, the maximal velocity (Vmax) amounted to 435 ± 9 µmol/min and the kcat/Km came out at 151000 ± 3000 M⁻¹ s⁻¹. In addition, the “effect of ion on GDP binding to Am2136” value at Am2136 WT is reported as “did not exhibit obvious behavioral effect on GDP binding”.

Consider `[Cl-].[Cl-].[Zn+2]` [Zn^2+, ZnCl2], for which, at Am2136 WT dialyzed, the “effect of metal ion” value is “significant inhibitory effects”.

B1: P595A+H597A (Akkermansia muciniphila ATCC BAA-835; H597A/P595A) (protein)
chain: QDAKQIADSLSIPPVKAGAKQLPMPSVSGAQIKLLGADYEQLVNSKGKIAPVISDTPVNVSFKVTKDGKEAVSKDYEIMLQAPQAAQGNPKPRIIPEILQWKGGQGEYKLGNTVTIACPDKELGKLFAADMEDVLGKKVKLVAPGAKADISLSLLKGGNLGREGYRLQIARDGVRLGAAAPTGLFWGTRTLLQMLRQTPGSVPCGTAVDFPRYQLRGFMLDVARTPYPLSYLKDVIRTMAWYKMNDLHLVINNNYIFHEHYVDNGHDPFKESYAAFRLESKMKGKDGTPLTARDLFYTKKEFADLVSYARKYGVNIVPEFDTPGHALSFTRLRPDLIYKGPMNHEKRRCEMLDAANPETIDLVSKVFDEYMLKDPKLGRPVFADCGVVHVGADEFYGDKEDYRHFANAVLTHALKRGYTPRIWGSLSAKPGKTPVVSKGVQMNLWSTGWMKAWEAVNQGYDVINTNDGALYIVPFAGYYRMDRNHKGLYNNWIPNRIGNETLPSGHPQLLGGTFAVWNDETDIMHTGYAPYDIWGIISGSMDVLSQKLWGTAKAPDTFEQHRELVSSIGNAPRTNALAKWKDSQPLTVKPSSLPQKLDKPALGPNYRLTMELELTAAPEGKEQVLLAAPEGELLAVMKDGTVGFRRDDSLEFSFGAKLPVGKKVKVEIVGEPEKTSLLLDGEPAGTAVLKNFSDKSKDFSDKFKHRPKVHRSTFILPLKELGSSFQGKVFHMNVQPL
What is called Km is the substrate concentration at which the rate is half of its maximum. Regarding B1, in series [1], the Km was 1580 ± 70 µM.
